Data reported in US7652025B2 (priority 2001, dated 2010).
Counter-ions that a name gives are not always drawn.

Key:
[1] = test system: Lipopolysaccharide (LPS)-induced lethal sepsis; parameters: species or system ICR mice; settings: mouse, in vivo
[2] = test system: experimental sepsis models; settings: reported in literature; cited from earlier work

## CN(C(=O)NCc1cccc(C(F)(F)F)c1)[C@@H]1CC[C@@]2(O)[C@H]3Cc4ccc(O)c5c4[C@@]2(CCN3CC2CC2)[C@H]1O5 [Compound 3, 17-cyclopropylmethyl-3,14β-dihydroxy-4,5α-epoxy-6β-(N-methyl-N′-3-trifluoromethylbenzylureido)morphinan tartaric acid salt]
[1]
  survival rate at 31 hours after administration of LPS: 70.0%

## C=CCN1CC[C@]23c4c5ccc(O)c4O[C@H]2C(=O)CC[C@@]3(O)[C@H]1C5 [naloxone]
[2]
  fever of experimental sepsis models: suppresses fever

## (D)Phe-(D)Phe-(D)Nle-(D)Arg-NH2
[1]
  survival rate at 24 hours after administration of LPS: 66.7%

## CN(C(=O)/C=C/c1ccoc1)[C@@H]1CC[C@@]2(O)[C@H]3Cc4ccc(O)c5c4[C@@]2(CCN3CC2CC2)[C@H]1O5.Cl [Compound 1, (−)-17-(cyclopropylmethyl)-3,14β-dihydroxy-4,5α-epoxy-6 [N-methyl-trans-3-(3-furyl)acrylamide]morphinan hydrochloric acid salt]
[1]
  survival rate after 48 hours: 40%
  survival rate at 24 hours after administration of LPS: 80%
  survival rate of sepsis model animals (FIG. 1): increases the survival rate

## CN1CC[C@]23c4c5ccc(O)c4O[C@H]2[C@@H](O)C=C[C@H]3[C@H]1C5 [morphine]
[2]
  survival rate of experimental sepsis models: decrease survival rate
